Read-outs that look alike come from different tables or passages of the source.
Tests used:
[1] = test system: Mouse mammary carcinoma 4T1 cells; assay: Anchorage-independent tumor cell growth assay; format: cell-based
Method: Cells are cultured for 2 h and inhibitors are added at various concentrations in a final concentration of 0.1% DMSO. After 48 h, cell growth is assayed with the cell counting kit-8 (Wako Pure Chemical), which uses a water soluble tetrazolium salt WST8. Twenty μL of the reagent is added into each well and cells are further cultured for 2 h. The optical density is measured at 450 nm.

human FAK kinase domain = human FAK kinase domain (Homo sapiens, UniProt Q05397); assay: FAK assay (FRET, Biot-Y397 peptide)
Method: All steps are performed in a 96-well black microtiter plate. […] The enzyme reaction is started by addition of 5 μL of 5 μM ATP in water and the mixture is incubated for 3 hours at 37° C. […] The results are shown as percent inhibition of enzyme activity. […] IC50 values are determined by non-linear curve fit analysis using the OriginPro 6.1 program (OriginLab).

FAK (Tyr397) = FAK (Tyr397) (Mus musculus, UniProt P34152); assay: Phosphorylation levels of FAK at Tyr397 (sandwich ELISA, 4T1 cells)
Method: Phosphorylation levels of FAK at Tyr397 is quantified by the sandwich ELISA. Mouse mammary carcinoma 4T1 cells (1×10^5) are plated in wells of 96-well culture plates and incubated with or without various concentrations of inhibitors for 1 h in Dulbecco's modified eagle medium containing 0.5% BSA. The medium is removed and cells are lysed in 200 μL 50 mM Tris-HCl, pH 7.4, containing 1% NP-40, 0.25% sodium deoxycholate, 150 mM NaCl, 1 mM EDTA, 1 mM PMSF, 1 mM Na3VO4, 1 mM NaF, 1 μg/mL aprotinin, 1 μg/mL leupeptin and 1 μg/mL pepstatin. […] The concentration of compound causing 50% reduction of phosphorylation level of FAK is determined.

[2] = test system: Jurkat T human leukemic cell line; assay: In vitro T cell migration assay; format: cell-based
Method: Inhibitory activities of FAK inhibitors on the mobility of immune cells are secured by the following in vitro study. […] Cell mobility is appraised through the number of cells migrated into lower chamber by labeling with calcein-AM (Molecular Probes, Netherlands) at 8 μg/ml in HBSS for 1 h.

human IGF-IR = target: T1, human IGF-IR (Homo sapiens, UniProt P08069); assay: IGF-I induced IGF-IR autophosphorylation, cellular Capture ELISA; format: cell-based; conditions: read-out: IGF-1R IC50
T1 construct: transfected with human IGF-IR cDNA (complete human IGF-IR cDNA); expressed in transfected cells; host or cells: NIH-3T3 mouse fibroblasts
Method: In this assay the activity of the compounds of the invention against Insulin-like growth factor I (IGF-I) induced autophosphorylation of the IGF-IR is determined.
The cells which overexpress human IGF-IR are cultured in Dulbecco's minimal essential (DMEM) medium, containing 10% Fetal Calf Serum (FCS). […] On day 3 the medium is discarded and the cells are incubated for 24 h in minimal medium (DMEM, containing 0.5% FCS).
The medium is discarded and the cells are washed twice with PBS/O (=Phosphate-Buffered Saline without CaCl2) and lysed for 15 min on ice with 50 μl/well RIPA-buffer [50 mM Tris.HCl, pH=7.2, 120 mM NaCl, 1 mM EDTA, 6 mM EGTA, 1% NP-40, 20 mM NaF, 1 mM benzamidine, 15 mM sodium pyrophosphate, 1 mM Phenyl methyl sulphonyl fluoride (PMSF) and 0.5 mM Na3VO4] and shaken for 10 min using a 96-well plate shaker (=cellular extracts).
The plates are washed twice with 0.05% (v/v) Tween-20 in Phosphate-Buffered Saline (PBS) and once with nanopure H2O. […] After blocking, the plates are washed once with nanopure H2O.
After incubating the extracts and the secondary antibody for 2 h at 4° C., the extracts are discarded, the plates are washed twice with 0.05% (v/v) Tween-20 in PBS and once with nanopure water.
90 μl/well AP substrate (CDP-Star; obtained from Tropix; Cat. No.: MS100RY) are then added and the plates are incubated for 45 min at RT in the dark, followed by measuring AP activity in a Packard Top Count Microplate Scintillation Counter. The IC50 values for the compounds of formula I are calculated via linear regression analysis using the GraphPad Instat program (GraphPad Software, USA).

T1 sequence (P08069 31-1367): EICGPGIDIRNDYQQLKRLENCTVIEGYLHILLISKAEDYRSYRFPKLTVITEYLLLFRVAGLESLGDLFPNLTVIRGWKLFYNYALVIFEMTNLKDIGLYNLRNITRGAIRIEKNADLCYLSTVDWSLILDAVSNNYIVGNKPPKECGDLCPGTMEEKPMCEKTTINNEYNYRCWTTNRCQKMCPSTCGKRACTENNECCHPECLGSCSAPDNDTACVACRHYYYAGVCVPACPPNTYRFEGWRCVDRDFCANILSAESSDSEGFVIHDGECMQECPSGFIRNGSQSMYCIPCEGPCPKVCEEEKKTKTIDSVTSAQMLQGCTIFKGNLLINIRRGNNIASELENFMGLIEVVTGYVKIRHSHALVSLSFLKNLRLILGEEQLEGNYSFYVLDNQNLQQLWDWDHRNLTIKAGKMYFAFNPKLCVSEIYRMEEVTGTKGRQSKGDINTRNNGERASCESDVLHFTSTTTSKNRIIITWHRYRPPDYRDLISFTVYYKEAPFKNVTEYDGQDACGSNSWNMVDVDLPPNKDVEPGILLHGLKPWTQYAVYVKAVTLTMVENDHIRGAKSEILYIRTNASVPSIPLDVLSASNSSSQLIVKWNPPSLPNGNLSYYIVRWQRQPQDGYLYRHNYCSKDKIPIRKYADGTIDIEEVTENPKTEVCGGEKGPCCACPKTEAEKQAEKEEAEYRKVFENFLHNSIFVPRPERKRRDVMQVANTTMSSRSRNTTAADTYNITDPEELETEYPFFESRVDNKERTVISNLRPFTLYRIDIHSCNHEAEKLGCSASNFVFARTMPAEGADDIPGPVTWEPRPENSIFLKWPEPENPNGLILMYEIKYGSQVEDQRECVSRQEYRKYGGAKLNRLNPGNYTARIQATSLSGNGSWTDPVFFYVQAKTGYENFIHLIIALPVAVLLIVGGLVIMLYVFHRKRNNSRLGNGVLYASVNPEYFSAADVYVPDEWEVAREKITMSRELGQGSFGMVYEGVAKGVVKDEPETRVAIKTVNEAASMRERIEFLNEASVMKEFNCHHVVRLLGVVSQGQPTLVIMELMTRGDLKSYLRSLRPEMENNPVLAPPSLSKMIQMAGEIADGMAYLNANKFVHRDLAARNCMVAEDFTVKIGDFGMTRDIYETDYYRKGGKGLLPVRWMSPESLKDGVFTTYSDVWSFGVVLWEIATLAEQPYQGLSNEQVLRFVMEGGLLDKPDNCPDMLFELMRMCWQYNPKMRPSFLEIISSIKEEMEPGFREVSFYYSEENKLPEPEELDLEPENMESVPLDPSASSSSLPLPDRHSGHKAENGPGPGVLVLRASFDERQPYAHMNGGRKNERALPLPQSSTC
FAK (Tyr397), sequence (P34152 whole entry): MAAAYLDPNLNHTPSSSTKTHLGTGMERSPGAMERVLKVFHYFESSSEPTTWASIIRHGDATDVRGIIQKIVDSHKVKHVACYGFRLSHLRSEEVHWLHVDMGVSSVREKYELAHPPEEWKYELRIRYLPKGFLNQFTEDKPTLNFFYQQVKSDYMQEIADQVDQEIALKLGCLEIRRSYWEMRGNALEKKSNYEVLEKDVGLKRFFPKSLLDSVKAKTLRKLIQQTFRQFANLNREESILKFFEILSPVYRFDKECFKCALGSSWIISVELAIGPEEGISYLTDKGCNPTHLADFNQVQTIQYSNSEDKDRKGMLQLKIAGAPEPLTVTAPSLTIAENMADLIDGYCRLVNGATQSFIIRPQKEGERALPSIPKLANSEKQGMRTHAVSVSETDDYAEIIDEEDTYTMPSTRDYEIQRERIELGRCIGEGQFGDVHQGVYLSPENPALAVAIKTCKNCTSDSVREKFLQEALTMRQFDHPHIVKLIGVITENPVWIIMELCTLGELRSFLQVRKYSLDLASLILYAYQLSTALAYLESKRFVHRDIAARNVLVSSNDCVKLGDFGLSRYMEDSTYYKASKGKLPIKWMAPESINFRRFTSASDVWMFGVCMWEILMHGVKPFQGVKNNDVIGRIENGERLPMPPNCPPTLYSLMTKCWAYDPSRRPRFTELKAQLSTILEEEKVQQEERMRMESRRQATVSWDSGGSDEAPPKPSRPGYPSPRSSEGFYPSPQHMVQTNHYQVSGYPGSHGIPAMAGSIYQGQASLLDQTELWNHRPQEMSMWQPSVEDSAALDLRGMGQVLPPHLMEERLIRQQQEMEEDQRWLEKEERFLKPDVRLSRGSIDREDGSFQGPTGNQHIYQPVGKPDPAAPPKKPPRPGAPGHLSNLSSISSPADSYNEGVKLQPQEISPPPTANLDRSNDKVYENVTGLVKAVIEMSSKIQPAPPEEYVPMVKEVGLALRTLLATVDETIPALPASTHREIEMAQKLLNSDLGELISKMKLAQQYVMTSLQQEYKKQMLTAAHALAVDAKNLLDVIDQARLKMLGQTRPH
human FAK kinase domain, sequence (Q05397 384-706): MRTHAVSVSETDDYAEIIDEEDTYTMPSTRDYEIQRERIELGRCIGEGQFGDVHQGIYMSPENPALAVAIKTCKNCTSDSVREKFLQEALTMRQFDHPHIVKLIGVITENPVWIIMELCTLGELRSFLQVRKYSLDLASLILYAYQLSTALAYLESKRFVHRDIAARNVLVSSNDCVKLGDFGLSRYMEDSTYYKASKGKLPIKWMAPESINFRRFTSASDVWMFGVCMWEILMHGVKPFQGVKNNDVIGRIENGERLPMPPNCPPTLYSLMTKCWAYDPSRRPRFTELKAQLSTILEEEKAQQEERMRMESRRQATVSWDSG

| IC50 [2] [nM] | Structure (SMILES) | further results |
| --- | --- | --- |
|  | CCC(CC)NS(=O)(=O)c1ccccc1Nc1nc(Nc2ccc(OC3CCN(C)C3)cc2OC)ncc1Cl (stereo not shown) [Example 23-7] | IC50 ([1]; Mus musculus, 4T1): 840 nM; IC50 (human FAK kinase domain): 2.1 nM; IC50 (FAK (Tyr397)): 3000 nM |
| 600 | COc1cc(N2CCC(O)CC2)ccc1Nc1ncc(Cl)c(Nc2ccccc2S(=O)(=O)C(C)C)n1 [Example 28-16] |  |
| 630 | CCC(CC)NS(=O)(=O)c1ccccc1Nc1nc(Nc2ccc(OC3CCN(C)CC3)cc2OC)ncc1Cl [Example 23-1] |  |
| 600 | CCNC(=O)c1ccccc1Nc1nc(Nc2ccc(N3CCOCC3)cc2OC)ncc1Cl [Example 9-1] |  |
| 290 | COc1cc(N2CCC(N3CCOCC3)CC2)ccc1Nc1ncc(Cl)c(Nc2ccccc2S(=O)(=O)C(C)C)n1 [Example 28-13] |  |
|  | CCCS(=O)(=O)c1ccccc1Nc1nc(Nc2ccc(C(=O)N3CCOCC3)cc2OC)ncc1Cl [Example 26-20] | IC50 (human IGF-IR): 490 nM; IC50 (human FAK kinase domain): 10 nM; IC50 (FAK (Tyr397)): 140 nM |
|  | Cc1cc(N2CCOCC2)ccc1Nc1ncc(Cl)c(Nc2ccccc2S(=O)(=O)C(C)C)n1 [Example 28-6] | IC50 [1]: 560 nM |
| 130 | CNS(=O)(=O)c1ccccc1Nc1nc(Nc2cc(N3CCN(C(C)=O)CC3)ccc2OC)ncc1Br [Example 3-34] |  |
| 580 | CNS(=O)(=O)c1ccccc1Nc1nc(Nc2cc(N3CCC(N4CCCCC4)CC3)ccc2OC)ncc1Br [Example 3-69] |  |
|  | CCCS(=O)(=O)c1ccccc1Nc1nc(Nc2ccc(N3CCN(C(C)C)CC3)cc2OC)ncc1Cl [Example 26-23] | IC50 [1]: 90 nM |
| 250 | CNC(=O)c1ccccc1Nc1nc(Nc2cc(N3CCOCC3)ccc2OC)ncc1Cl [Example 7-6] |  |
|  | CNS(=O)(=O)c1ccccc1Nc1nc(Nc2ccc(-n3ccnc3C)cc2OC)ncc1Br [Example 3-83] | IC50 [1]: 320 nM |
| 290 | CNC1CCN(c2ccc(Nc3ncc(Cl)c(Nc4ccccc4S(=O)(=O)NC(C)C)n3)c(OC)c2)C1 (stereo not shown) [Example 19-1] |  |
|  | CNC(=O)c1cc(N2CCCC2)ccc1Nc1nc(Nc2ccc(N3CCOCC3)cc2OC)ncc1Cl [Example 15-3] | IC50 ([1]; Mus musculus, 4T1): 1670 nM; IC50 (human FAK kinase domain): 44 nM; IC50 (FAK (Tyr397)): 2000 nM |
| 300 | CNS(=O)(=O)c1ccccc1Nc1nc(Nc2ccc(N3CCN(C(C)=O)CC3)cc2OC)ncc1Br [Example 3-46] |  |
|  | CNC(=O)c1ccccc1Nc1nc(Nc2cc(F)ccc2OC)ncc1Br [Example 8-3] | IC50 [1]: 1000 nM |
|  | COc1cc(OC2CCN(C)CC2)ccc1Nc1ncc(Cl)c(Nc2ccccc2S(=O)(=O)C(C)C)n1 [Example 28-19] | IC50 ([1]; Mus musculus, 4T1): 140 nM; IC50 (human FAK kinase domain): 3.7 nM; IC50 (FAK (Tyr397)): 500 nM |
| 300 | CCNC(=O)c1ccccc1Nc1nc(Nc2ccc(OC3CCN(C)CC3)cc2OC)ncc1Cl [Example 9-6] |  |
| 90 | CCCS(=O)(=O)c1ccccc1Nc1nc(Nc2ccc(N3CCN(C(C)=O)CC3)cc2OC)ncc1Cl [Example 26-2] |  |
| 40 | CNC(=O)c1ccccc1Nc1nc(Nc2ccc(N3CCOCC3)cc2OC)ncc1Cl [Example 7A, 2-[5-Chloro-2-(2-methoxy-4-morpholin-4-yl-phenylamino)-pyrimidin-4-ylamino]-N-methyl-benzamide] |  |
|  | CCNC(=O)c1ccccc1Nc1nc(Nc2ccc(N3CCC(N4CCCCC4)CC3)cc2OC)ncc1Cl [Example 9-3] | IC50 ([1]; Mus musculus, 4T1): 370 nM; IC50 (human FAK kinase domain): 18 nM; IC50 (FAK (Tyr397)): 100 nM |
|  | CC(C)S(=O)(=O)c1ccccc1Nc1nc(Nc2cccc3c2OCC3)ncc1Cl [Example 28-31] | IC50 [1]: 1060 nM |
| 500 | COc1cc(N2CCC[C@H](C(N)=O)C2)ccc1Nc1ncc(Cl)c(Nc2ccccc2S(=O)(=O)C(C)C)n1 [Example 28-27] |  |
|  | CCN1CCN(c2ccc(Nc3ncc(Cl)c(Nc4ccccc4S(=O)(=O)C(C)C)n3)c(OC)c2)CC1 [Example 28-12] | IC50 [1]: 430 nM |
| 90 | CNS(=O)(=O)c1ccccc1Nc1nc(Nc2ccc(OC3CCN(C)CC3)cc2OC)ncc1Br [Example 3-33] |  |

| IC50 [2] [nM] | Structure (SMILES) | further results |
| --- | --- | --- |
| 260 | CCCS(=O)(=O)c1ccccc1Nc1nc(Nc2cc(N3CCOCC3)ccc2OC)ncc1Cl [Example 26-17] |  |
| 500 | CCCS(=O)(=O)c1ccccc1Nc1nc(Nc2ccc(N3CCN(C(C)=O)C(C)(C)C3)cc2OC)ncc1Cl [Example 26-11] |  |
|  | CNS(=O)(=O)c1ccccc1Nc1nc(Nc2cccc3c2CCCC3)ncc1Br [Example 3-31] | IC50 [1]: 5000 nM |
| 310 | CNC(=O)c1ccccc1Nc1nc(Nc2ccc(N3CCC(NC)C3)cc2OC)ncc1Cl (stereo not shown) [Example 7-12] |  |
| 290 | COc1cc(N2CCOCC2)ccc1Nc1ncc(Cl)c(Nc2ccccc2S(=O)(=O)NC(C)C)n1 [Example 19-8] |  |
| 220 | COc1cc(N2CCOCC2)ccc1Nc1ncc(Cl)c(Nc2cccc3c2C(=O)N(C)C3)n1 [Example 12-1, 7-[5-Chloro-2-(2-methoxy-4-morpholin-4-yl-phenylamino)-pyrimidin-4-ylamino]-2-methyl-2,3-dihydro-isoindol-1-one] |  |
| 1000 | COc1cc(N2CCC[C@@H](C(N)=O)C2)ccc1Nc1ncc(Cl)c(Nc2ccccc2S(=O)(=O)C(C)C)n1 [Example 28-28] |  |
| 300 | CC(C)NS(=O)(=O)c1ccccc1Nc1nc(Nc2ccc(OC3CCN(C)CC3)cc2F)ncc1Cl [Example 19-28] |  |
|  | CNS(=O)(=O)c1ccccc1Nc1nc(Nc2ccc(OC3CCN(C)C3)cc2OC)ncc1Cl (stereo not shown) [Example 20-29] | IC50 ([1]; Mus musculus, 4T1): 50 nM; IC50 (human IGF-IR): 310 nM; IC50 (human FAK kinase domain): 6.1 nM; IC50 (FAK (Tyr397)): 200 nM |
| 750 | CNS(=O)(=O)c1ccccc1Nc1nc(Nc2ccc(N3CCN(C(C)=O)CC3)cc2OC)ncc1Cl [Example 20-2] |  |
| 1000 | CNS(=O)(=O)c1ccccc1Nc1nc(Nc2ccc(N3CCN(C)CC3)cc2OC)ncc1Br [Example 3-39] |  |
| 290 | CNS(=O)(=O)c1ccccc1Nc1nc(Nc2ccc(N3CCC(N4CCCCC4)CC3)cc2OC)ncc1Cl [Example 20-8] | IC50 ([1]; Mus musculus, 4T1): 50 nM; IC50 (human FAK kinase domain): 6.8 nM; IC50 (FAK (Tyr397)): 170 nM |
| 250 | CNS(=O)(=O)c1ccccc1Nc1nc(Nc2ccc(N3CCOCC3)cc2OC)ncc1Cl [Example 20-1] |  |
|  | CCC(C)NS(=O)(=O)c1ccccc1Nc1nc(Nc2ccc(N3CCN(C)CC3)cc2OC)ncc1Cl (stereo not shown) [Example 21-1] | IC50 ([1]; Mus musculus, 4T1): 190 nM; IC50 (human IGF-IR): 470 nM |
| 280 | CNS(=O)(=O)c1ccccc1Nc1nc(Nc2cc(N3CCOCC3)ccc2OC)ncc1Br [Example 3-32] |  |
| 210 | CNS(=O)(=O)c1ccccc1Nc1nc(Nc2cc(N(C)C)ccc2OC)ncc1Br [Example 3-64] |  |
| 700 | CNS(=O)(=O)c1ccccc1Nc1nc(Nc2cc(OC3CCN(C)CC3)ccc2OC)ncc1Br [Example 3-76] |  |
| 800 | CNS(=O)(=O)c1ccccc1Nc1nc(Nc2cc(OCCN3CCOCC3)ccc2OC)ncc1Br [Example 3-35] |  |
| 280 | COc1cc(N2CCOCC2)ccc1Nc1ncc(Cl)c(Nc2ccccc2C(=O)N(C)C)n1 [Example 14-1] |  |
| 70 | COc1cc(N2CCN(C)CC2)ccc1Nc1ncc(Cl)c(Nc2ccccc2S(=O)(=O)NC(C)C)n1 [Example 19-5] | IC50 ([1]; Mus musculus, 4T1): 670 nM; IC50 (human IGF-IR): 470 nM |
|  | CNS(=O)(=O)c1ccccc1Nc1nc(Nc2ccc(OC3CCN(C)C3)cc2OC)ncc1Br (stereo not shown) [Example 3-82] | IC50 ([1]; Mus musculus, 4T1): 70 nM; IC50 (human FAK kinase domain): 4.8 nM; IC50 (FAK (Tyr397)): 200 nM |
| 49000 | CNS(=O)(=O)c1ccccc1Nc1nc(Nc2ccc(N3CCN(C)CC3)cc2OC)ncc1Cl [Example 20-6] |  |
| 290 | CCCS(=O)(=O)c1ccccc1Nc1nc(Nc2ccc(N3CCC(O)CC3)cc2OC)ncc1Cl [Example 26-4] |  |
| 1000 | COc1cc(N2CCOCC2)ccc1Nc1ncc(Cl)c(Nc2ccccc2C(=O)NC(C)C)n1 [Example 14-2] |  |
| 1000 | CNC(=O)c1ccccc1Nc1nc(Nc2cc(N3CCN(C(C)=O)CC3)ccc2OC)ncc1Cl [Example 7-30] |  |

| Structure (SMILES) | IC50 [2] [nM] | further results |
| --- | --- | --- |
| COc1cc(N2CCC(N(C)C)C2)ccc1Nc1ncc(Cl)c(Nc2ccccc2S(=O)(=O)NC(C)C)n1 (stereo not shown) [Example 19-9] | 300 |  |
| CNS(=O)(=O)c1ccccc1Nc1nc(Nc2ccc(N3CCCC(C(N)=O)C3)cc2OC)ncc1Br (stereo not shown) [Example 3-68] | 1000 |  |
